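Tested at 5 concentrations; 48 h exposure; 96-well plates; endpoints linearly interpolated, else capped at highest concentration. GI50: concentration for 50% inhibition of growth. TGI is the concentration that stops growth completely.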
What was measured:
Experiment in all cases: inhibition of tumour cell growth, NCI panel, 48 h
HL-60(TB) leukemia = tested on: HL-60(TB) leukemia
RXF 393 renal = tested on: RXF 393 renal
HOP-92 NSCLC = tested on: HOP-92 NSCLC
A498 renal = tested on: A498 renal
OVCAR-8 ovarian = tested on: OVCAR-8 ovarian
LOX IMVI melanoma = tested on: LOX IMVI melanoma
SNB-19 CNS = tested on: SNB-19 CNS
DU-145 prostate = tested on: DU-145 prostate
SR leukemia = tested on: SR leukemia
CAKI-1 renal = tested on: CAKI-1 renal

SMILES: O=C(Oc1ccc(O)c2c(=O)n3c(cc12)[nH]c1ccccc13)c1ccccc1
- GI50 (HL-60(TB) leukemia): 21.6 µM
- TGI (HL-60(TB) leukemia): 51.7 µM
- TGI (RXF 393 renal): 0.505 µM
- GI50 (HOP-92 NSCLC): 23.8 µM
- TGI (HOP-92 NSCLC): 53.4 µM
- GI50 (A498 renal): 20900 nM
- TGI (A498 renal): 42.4 µM
- GI50 (OVCAR-8 ovarian): 11.1 µM
- TGI (OVCAR-8 ovarian): 32.5 µM
- GI50 (LOX IMVI melanoma): 4.77 µM
- TGI (LOX IMVI melanoma): 20.1 µM
- GI50 (SNB-19 CNS): 37.7 µM
- TGI (SNB-19 CNS): > 100 µM
- GI50 (DU-145 prostate): 30500 nM
- TGI (DU-145 prostate): > 100 µM
- GI50 (SR leukemia): 25.9 µM
- TGI (SR leukemia): 82.2 µM

SMILES: Cc1cc(S(=O)(=O)Nc2nc(N)nc(N3N=CCC3C)n2)c(S)cc1Cl (configuration not stated)
- TGI (HL-60(TB) leukemia): > 10 µM
- TGI (RXF 393 renal): > 10 µM
- TGI (HOP-92 NSCLC): > 10 µM
- TGI (A498 renal): > 10 µM
- TGI (CAKI-1 renal): > 10 µM
- TGI (OVCAR-8 ovarian): > 10 µM
- TGI (LOX IMVI melanoma): > 10 µM
- TGI (SNB-19 CNS): > 10 µM
- TGI (DU-145 prostate): > 10 µM
- TGI (SR leukemia): > 10 µM

SMILES: O=c1ccn(C2OC(CO)C(O)C2O)c(=O)[nH]1 (configuration not stated)
- GI50 (HL-60(TB) leukemia): > 1000 µM
- TGI (HL-60(TB) leukemia): > 1000 µM
- GI50 (RXF 393 renal): > 1000 µM
- TGI (RXF 393 renal): > 1000 µM
- GI50 (HOP-92 NSCLC): > 1000 µM
- TGI (HOP-92 NSCLC): > 1000 µM
- TGI (A498 renal): > 1000 µM
- TGI (CAKI-1 renal): > 1000 µM
- GI50 (OVCAR-8 ovarian): > 1000 µM
- TGI (OVCAR-8 ovarian): > 1000 µM
- GI50 (LOX IMVI melanoma): > 1000 µM
- TGI (LOX IMVI melanoma): > 1000 µM
- GI50 (SNB-19 CNS): > 1000 µM
- TGI (SNB-19 CNS): > 1000 µM
- TGI (DU-145 prostate): > 1000 µM
- GI50 (SR leukemia): > 1000 µM
- TGI (SR leukemia): > 1000 µM

SMILES: CC1(C)C=CC[C@]2(C)[C@H]3CC[C@@H]4[C@H]5[C@H](C(=O)/C=C/c6cccnc6)CC[C@]5(CO)CC[C@@]4(C)[C@]3(C)CC[C@@H]12
- GI50 (HL-60(TB) leukemia): 0.304 µM
- TGI (HL-60(TB) leukemia): 1.89 µM
- GI50 (RXF 393 renal): 1.12 µM
- TGI (RXF 393 renal): 2.37 µM
- GI50 (HOP-92 NSCLC): 0.66 µM
- TGI (HOP-92 NSCLC): 2.05 µM
- GI50 (A498 renal): 1370 nM
- TGI (A498 renal): 2.72 µM
- GI50 (CAKI-1 renal): 1060 nM
- TGI (CAKI-1 renal): 2.33 µM
- GI50 (OVCAR-8 ovarian): 0.666 µM
- TGI (OVCAR-8 ovarian): 3.22 µM
- GI50 (SNB-19 CNS): 1.49 µM
- TGI (SNB-19 CNS): 2.84 µM
- GI50 (DU-145 prostate): 1360 nM
- TGI (DU-145 prostate): 2.69 µM
- GI50 (SR leukemia): 0.631 µM
- TGI (SR leukemia): 3.7 µM

SMILES: CC[N+](CCCCCCCCCC[N+](CC)(c1ccccn1)c1ccccn1)(c1ccccn1)c1ccccn1
- GI50 (HL-60(TB) leukemia): 0.554 µM
- TGI (HL-60(TB) leukemia): 2.93 µM
- GI50 (RXF 393 renal): 2.5 µM
- TGI (RXF 393 renal): 21.2 µM
- GI50 (A498 renal): 1020 nM
- TGI (A498 renal): 5.58 µM
- GI50 (CAKI-1 renal): 2610 nM
- TGI (CAKI-1 renal): 9.92 µM
- GI50 (OVCAR-8 ovarian): 2.11 µM
- TGI (OVCAR-8 ovarian): 57.5 µM
- GI50 (LOX IMVI melanoma): 1.5 µM
- TGI (LOX IMVI melanoma): 4.29 µM
- GI50 (SNB-19 CNS): 0.761 µM
- TGI (SNB-19 CNS): 27.3 µM
- GI50 (DU-145 prostate): 858 nM
- TGI (DU-145 prostate): 12.4 µM
- GI50 (SR leukemia): 1.36 µM
- TGI (SR leukemia): 22.1 µM

SMILES: CC1=CSC2=NC(c3ccc(Cl)c(Cl)c3)=CC(c3ccc(Cl)cc3)N12 (configuration not stated)
- GI50 (HL-60(TB) leukemia): > 100 µM
- TGI (HL-60(TB) leukemia): > 100 µM
- GI50 (RXF 393 renal): > 100 µM
- TGI (RXF 393 renal): > 100 µM
- GI50 (HOP-92 NSCLC): > 100 µM
- TGI (HOP-92 NSCLC): > 100 µM
- GI50 (A498 renal): > 100000 nM
- TGI (A498 renal): > 100 µM
- GI50 (CAKI-1 renal): > 100000 nM
- TGI (CAKI-1 renal): > 100 µM
- GI50 (OVCAR-8 ovarian): > 100 µM
- TGI (OVCAR-8 ovarian): > 100 µM
- GI50 (LOX IMVI melanoma): > 100 µM
- TGI (LOX IMVI melanoma): > 100 µM
- GI50 (SNB-19 CNS): > 100 µM
- TGI (SNB-19 CNS): > 100 µM
- GI50 (DU-145 prostate): > 100000 nM
- TGI (DU-145 prostate): > 100 µM
- GI50 (SR leukemia): > 61.3 µM
- TGI (SR leukemia): > 100 µM

SMILES: NC(=O)c1c[se]c(C2OC(CO)C(O)C2O)n1 (configuration not stated)
- TGI (HL-60(TB) leukemia): > 100 µM
- TGI (HOP-92 NSCLC): > 100 µM
- TGI (A498 renal): > 100 µM
- TGI (CAKI-1 renal): > 100 µM
- TGI (OVCAR-8 ovarian): > 100 µM
- TGI (LOX IMVI melanoma): > 100 µM
- TGI (SNB-19 CNS): > 100 µM
- TGI (DU-145 prostate): > 100 µM
- TGI (SR leukemia): > 100 µM

SMILES: Nc1c(C(=O)c2ccccc2)sc2nc(-c3cccs3)ccc12
- GI50 (RXF 393 renal): 0.317 µM
- TGI (RXF 393 renal): 1.63 µM
- GI50 (HOP-92 NSCLC): 0.486 µM
- TGI (HOP-92 NSCLC): 7.31 µM
- GI50 (A498 renal): 185 nM
- TGI (A498 renal): 3.91 µM
- GI50 (CAKI-1 renal): 564 nM
- TGI (CAKI-1 renal): 20.1 µM
- GI50 (OVCAR-8 ovarian): 0.453 µM
- TGI (OVCAR-8 ovarian): > 100 µM
- GI50 (LOX IMVI melanoma): 0.378 µM
- TGI (LOX IMVI melanoma): 15.3 µM
- GI50 (SNB-19 CNS): 0.432 µM
- TGI (SNB-19 CNS): 10.3 µM
- GI50 (DU-145 prostate): 299 nM
- TGI (DU-145 prostate): 10 µM
- GI50 (SR leukemia): 0.0668 µM
- TGI (SR leukemia): 4.16 µM

SMILES: COc1cc([C@H](C)c2ccc3ccccc3c2)cc(OC)c1OC
- GI50 (HL-60(TB) leukemia): 0.184 µM
- TGI (HL-60(TB) leukemia): 0.745 µM
- GI50 (RXF 393 renal): 0.22 µM
- TGI (RXF 393 renal): > 100 µM
- GI50 (HOP-92 NSCLC): 0.908 µM
- TGI (HOP-92 NSCLC): 53 µM
- GI50 (A498 renal): 255 nM
- TGI (A498 renal): 7.34 µM
- GI50 (OVCAR-8 ovarian): 0.499 µM
- TGI (OVCAR-8 ovarian): 65.1 µM
- GI50 (LOX IMVI melanoma): 1.03 µM
- TGI (LOX IMVI melanoma): > 100 µM
- GI50 (SNB-19 CNS): 0.601 µM
- TGI (SNB-19 CNS): > 100 µM
- GI50 (DU-145 prostate): 494 nM
- TGI (DU-145 prostate): > 100 µM
- GI50 (SR leukemia): 0.0528 µM
- TGI (SR leukemia): > 100 µM

SMILES: COc1cc(/C=C/c2cc(C(F)(F)F)[nH]c(=O)n2)ccc1OCc1ccccc1F
- GI50 (HL-60(TB) leukemia): 9.25 µM
- TGI (HL-60(TB) leukemia): 68.2 µM
- GI50 (RXF 393 renal): 2.4 µM
- TGI (RXF 393 renal): 8.78 µM
- GI50 (A498 renal): 1730 nM
- TGI (A498 renal): 8.6 µM
- GI50 (CAKI-1 renal): 11300 nM
- TGI (CAKI-1 renal): 42.3 µM
- GI50 (OVCAR-8 ovarian): 8.85 µM
- TGI (OVCAR-8 ovarian): 48.8 µM
- GI50 (LOX IMVI melanoma): 8.57 µM
- TGI (LOX IMVI melanoma): 22 µM
- GI50 (SNB-19 CNS): 11.5 µM
- TGI (SNB-19 CNS): 30.1 µM
- GI50 (DU-145 prostate): 9800 nM
- TGI (DU-145 prostate): 23.3 µM
- GI50 (SR leukemia): 4.17 µM
- TGI (SR leukemia): 43.3 µM

SMILES: O=C1c2cc(Br)ccc2-c2c1c1ccc([N+](=O)[O-])cc1c(=O)n2CCCCl
- GI50 (RXF 393 renal): 0.487 µM
- TGI (RXF 393 renal): 14.2 µM
- GI50 (HOP-92 NSCLC): 0.453 µM
- TGI (HOP-92 NSCLC): 23.9 µM
- GI50 (A498 renal): 2200 nM
- TGI (A498 renal): 19.4 µM
- GI50 (CAKI-1 renal): < 28.5 nM
- TGI (CAKI-1 renal): 2.73 µM
- GI50 (OVCAR-8 ovarian): 0.293 µM
- TGI (OVCAR-8 ovarian): 17.4 µM
- GI50 (LOX IMVI melanoma): < 0.0248 µM
- TGI (LOX IMVI melanoma): 5.12 µM
- GI50 (SNB-19 CNS): < 0.01 µM
- TGI (SNB-19 CNS): 7.19 µM
- GI50 (DU-145 prostate): 84.9 nM
- TGI (DU-145 prostate): 20.1 µM
- GI50 (SR leukemia): < 0.01 µM

SMILES: S=C(Nc1ccc(-c2nc3ccccc3[nH]2)cc1)NC1CCCCC1
- GI50 (HL-60(TB) leukemia): 46.9 µM
- GI50 (RXF 393 renal): 15.5 µM
- TGI (RXF 393 renal): 74 µM
- GI50 (HOP-92 NSCLC): 35.3 µM
- TGI (CAKI-1 renal): 55.2 µM
- GI50 (OVCAR-8 ovarian): 26.3 µM
- TGI (OVCAR-8 ovarian): 83.7 µM
- GI50 (LOX IMVI melanoma): 15.4 µM
- GI50 (SNB-19 CNS): 46.6 µM
- GI50 (DU-145 prostate): 37900 nM
- GI50 (SR leukemia): 10.9 µM
- TGI (SR leukemia): 52.5 µM

From PubChem BioAssay (NCI)
